From DBAASP
Values after ≈ are worked out from the molar mass of the structure shown. Values joined by “and” are separate entries in the source; they are usually repeats but may differ in a detail not shown here. Identical values can stand only once.

Assays:
Assay in all cases: ≥ marks a high value that may be exact or a test limit, other limits are often not marked, values filed in µg/mL are converted to µM
Escherichia coli TOP 10 = test system: Escherichia coli TOP 10
[1] = test system: Pseudomonas aeruginosa ATCC 27853
[2] = test system: Enterococcus faecalis NCTC 12697
[3] = test system: Staphylococcus aureus ATCC 12493
[4] = test system: Staphylococcus aureus NCTC 10788
[5] = test system: Escherichia coli NCTC 10418
[6] = test system: Candida albicans NCPF 1467
[7] = test system: Candida krusei ATCC 40095
Candida albicans CA1 = test system: Candida albicans CA1
[8] = test system: Candida parapsilosis ATCC 90018
[9] = test system: Candida krusei ATCC 40147
[10] = test system: Klebsiella pneumoniae ATCC 13866
[11] = test system: Escherichia coli ATCC 25922
[12] = test system: Enterococcus faecalis ATCC 29212
Vibrio cholerae O1 Inaba = test system: Vibrio cholerae O1 Inaba
[13] = test system: Bacillus cereus ATCC 11778
[14] = test system: Staphylococcus epidermidis ATCC 12228
[15] = test system: Listeria monocytogenes 10403s
Acinetobacter baumannii = test system: Acinetobacter baumannii
[16] = test system: Shigella sonnei ATCC 11060
[17] = test system: Staphylococcus aureus ATCC 25923
Escherichia coli O157:H7 = test system: Escherichia coli O157:H7
[18] = test system: Salmonella enterica subsp. enterica serovar Typhimurium ATCC 13311
[19] = test system: Staphylococcus aureus SH1000
[20] = test system: Candida parapsilosis CGMCC 2.3989
[21] = test system: Candida albicans CGMCC 2.2086
[22] = test system: Candida tropicalis CGMCC 2.1975
Candida albicans = test system: Candida albicans
[23] = test system: Candida viswanathii NBRC 10321
[24] = test system: Micrococcus luteus NBRC 3333
[25] = test system: Aspergillus oryzae NBRC 100959
[26] = test system: Escherichia coli NBRC 3972
[27] = test system: Pseudomonas putida NBRC 100650
[28] = test system: Staphylococcus epidermidis NBRC 12993
[29] = test system: Lacticaseibacillus rhamnosus 1.0385
[30] = test system: Staphylococcus aureus ATCC 29213
Escherichia coli UB1005 = test system: Escherichia coli UB1005
[31] = test system: Lacticaseibacillus rhamnosus 7469
[32] = test system: Lactiplantibacillus plantarum 8014
[33] = test system: Lacticaseibacillus rhamnosus 1.0925
[34] = test system: Staphylococcus aureus ATCC 43300
[35] = test system: Lacticaseibacillus rhamnosus 1.0386
[36] = test system: Lacticaseibacillus rhamnosus 1.0911

CC[C@H](C)[C@H](NC(=O)[C@H](C)NC(=O)[C@H](CS)NC(=O)[C@H](CC(C)C)NC(=O)[C@@H](NC(=O)[C@H](C)NC(=O)[C@H](CCCN=C(N)N)NC(=O)[C@@H](NC(=O)[C@@H](NC(=O)[C@H](CCCCN)NC(=O)[C@@H](NC(=O)[C@@H](NC(=O)[C@@H]1CCCN1C(=O)CNC(=O)[C@H](CC(C)C)NC(=O)[C@@H](N)Cc1ccccc1)[C@@H](C)CC)[C@@H](C)CC)[C@@H](C)O)C(C)C)C(C)C)C(=O)N[C@@H](CCCCN)C(=O)N[C@@H](CCCCN)C(=O)N[C@@H](CC(C)C)C(N)=O [FLGPIIKTVRAVLCAIKKL]
MIC (Escherichia coli TOP 10): 12 µM (≈ 25 µg/mL)

CC[C@H](C)[C@H](NC(=O)[C@@H](NC(=O)CNC(=O)[C@@H]1CCCN1C(=O)[C@@H](NC(=O)[C@@H](NC(=O)[C@H](CC(N)=O)NC(=O)[C@H](C)NC(=O)[C@H](C)NC(=O)[C@@H](NC(=O)[C@H](CCCCN)NC(=O)[C@H](CC(C)C)NC(=O)[C@@H](NC(=O)CNC(=O)[C@@H]1CCCN1C(=O)[C@H](CC(C)C)NC(=O)[C@@H](N)Cc1ccccc1)[C@@H](C)CC)C(C)C)C(C)C)C(C)C)C(C)C)C(=O)O [FLPGILKVAANVVPGVI]
MIC [1]: > 512 µM | MIC [2]: ≥ 512 µM | MIC [3]: ≥ 512 µM | MIC [4]: ≥ 512 µM | MIC [5]: ≥ 512 µM | MIC [6]: ≥ 512 µM

CC[C@H](C)[C@H](NC(=O)[C@H](C)NC(=O)[C@H](CCCCN)NC(=O)[C@H](CC(C)C)NC(=O)[C@H](C)NC(=O)[C@H](Cc1c[nH]c2ccccc12)NC(=O)[C@H](CCCCN)NC(=O)[C@H](C)NC(=O)[C@H](CC(C)C)NC(=O)[C@@H](NC(=O)CNC(=O)[C@H](Cc1c[nH]c2ccccc12)NC(=O)[C@@H](N)Cc1ccccc1)[C@@H](C)O)C(=O)O [FWGTLAKWALKAI]
MIC [7]: 10 µM and 20 µM | MIC (Candida albicans CA1): 10 µM (≈ 15 µg/mL) | MIC [8]: 20 µM (≈ 30.1 µg/mL) | MIC [9]: 10 µM (≈ 15 µg/mL)

CC[C@H](C)[C@H](NC(=O)CN)C(=O)N[C@@H](Cc1cnc[nH]1)C(=O)NCC(=O)N[C@H](C(=O)N[C@H](C(=O)N[C@@H](CCCN=C(N)N)C(=O)N[C@@H](CO)C(=O)N[C@@H](Cc1ccccc1)C(=O)N[C@@H](CCSC)C(=O)N[C@@H](CCCN=C(N)N)C(=O)N[C@@H](CCSC)C(=O)N[C@@H](CC(C)C)C(=O)NCC(=O)N[C@@H](Cc1cnc[nH]1)C(=O)N[C@@H](CC(C)C)C(=O)NCC(=O)O)C(C)C)C(C)C [GIHGVVRSFMRMLGHLG]
MIC [1]: 4.28 µM (≈ 8 µg/mL) | MIC [10]: ≥ 34.3 µM

CC[C@H](C)[C@H](NC(=O)[C@H](CCCN=C(N)N)NC(=O)[C@H](CCCCN)NC(=O)[C@H](C)NC(=O)[C@@H](NC(=O)[C@@H](N)CCCCN)[C@@H](C)CC)C(=O)N[C@@H](Cc1c[nH]c2ccccc12)C(=O)N[C@@H](CCCCN)C(=O)N[C@H](C(=O)N[C@@H](CC(C)C)C(=O)N[C@@H](CCCN=C(N)N)C(=O)N[C@@H](CCCN=C(N)N)C(=O)N[C@@H](CCCN=C(N)N)C(=O)N[C@@H](CC(C)C)C(=O)N[C@@H](Cc1ccccc1)C(=O)N[C@@H](CCCN=C(N)N)C(N)=O)[C@@H](C)CC [KIAKRIWKILRRRLFR]
MIC [1]: 3.63 µM (≈ 7.81 µg/mL) | MIC [11]: 3.63 µM (≈ 7.81 µg/mL) | MIC [12]: 7.26 µM (≈ 15.6 µg/mL) | MIC (Vibrio cholerae O1 Inaba): 1.82 µM (≈ 3.91 µg/mL) | MIC [13]: 1.82 µM (≈ 3.91 µg/mL) | MIC [14]: 1.82 µM (≈ 3.91 µg/mL) | MIC [15]: 1.82 µM (≈ 3.91 µg/mL) | MIC (Acinetobacter baumannii): 3.63 µM (≈ 7.81 µg/mL) | MIC [16]: 1.82 µM (≈ 3.91 µg/mL) | MIC [17]: 3.63 µM (≈ 7.81 µg/mL) | MIC (Escherichia coli O157:H7): 29 µM (≈ 62.5 µg/mL) | MIC [18]: 0.905 µM (≈ 1.95 µg/mL)

CC[C@H](C)[C@H](NC(=O)[C@H](CC(=O)O)NC(=O)[C@H](CC(C)C)NC(=O)[C@H](CC(C)C)NC(=O)[C@@H](N)CCCCN)C(=O)N[C@H](C(=O)N[C@@H](CCCCN)C(=O)N[C@@H](CCCCN)C(=O)N[C@H](C(=O)N[C@H](C(=O)NCC(=O)N[C@@H](C)C(=O)N[C@@H](CC(C)C)C(=O)NCC(N)=O)C(C)C)C(C)C)C(C)C [KLLDIVKKVVGALG]
MIC [19]: ≥ 100 µM

CC[C@H](C)[C@H](NC(=O)CNC(=O)[C@H](CCCN=C(N)N)NC(=O)[C@H](Cc1c[nH]c2ccccc12)NC(=O)[C@H](CC(C)C)NC(=O)[C@H](CC(C)C)NC(=O)[C@H](Cc1c[nH]c2ccccc12)NC(=O)[C@H](CCCN=C(N)N)NC(=O)CNC(=O)[C@@H](NC(=O)[C@@H](N)CCCN=C(N)N)[C@@H](C)CC)C(=O)N[C@@H](CCCN=C(N)N)C(=O)N[C@@H](CCCN=C(N)N)C(=O)N[C@H](C(=O)NCC(=O)N[C@@H](CCCN=C(N)N)C(=O)N[C@@H](Cc1c[nH]c2ccccc12)C(=O)N[C@@H](CC(C)C)C(N)=O)[C@@H](C)CC [RIGRWLLWRGIRRIGRWL]
MIC [20]: 4 µM (≈ 9.45 µg/mL) | MIC [21]: 4 µM (≈ 9.45 µg/mL) | MIC [22]: 2 µM (≈ 4.73 µg/mL) | MIC (Candida albicans): 2.83 µM and 4 µM

CC[C@H](C)[C@H](NC(=O)[C@H](CCCCN)NC(=O)[C@@H](N)CCCN=C(N)N)C(=O)N[C@@H](CCCCN)C(=O)N[C@H](C(=O)N[C@@H](Cc1ccc(O)cc1)C(=O)N[C@@H](CC(C)C)C(=O)N1CCC[C@H]1C(=O)N[C@@H](CCCN=C(N)N)C(=O)N[C@@H](CCSC)C(=O)N[C@@H](CCCCN)C(=O)O)C(C)C [RKIKVYLPRMK]
MIC [23]: 17.5 µM (≈ 25 µg/mL) | MIC [24]: 17.5 µM (≈ 25 µg/mL) | MIC [25]: 17.5 µM (≈ 25 µg/mL) | MIC [26]: 8.73 µM (≈ 12.5 µg/mL) | MIC [27]: 17.5 µM (≈ 25 µg/mL) | MIC [28]: ≥ 69.8 µM

NC(=O)CC[C@H](NC(=O)[C@H](Cc1c[nH]c2ccccc12)NC(=O)[C@H](Cc1c[nH]c2ccccc12)NC(=O)[C@H](Cc1c[nH]c2ccccc12)NC(=O)[C@H](CCC(N)=O)NC(=O)[C@H](Cc1c[nH]c2ccccc12)NC(=O)[C@H](CCCN=C(N)N)NC(=O)[C@@H](N)CCCN=C(N)N)C(=O)N[C@@H](Cc1c[nH]c2ccccc12)C(=O)N[C@@H](CCCN=C(N)N)C(=O)N[C@@H](CCCN=C(N)N)C(N)=O [RRWQWWWQWRR]
MIC [1]: 4 µM (≈ 7.32 µg/mL) | MIC [29]: ≥ 64 µM | MIC [11]: 4 µM (≈ 7.32 µg/mL) | MIC [30]: 4 µM (≈ 7.32 µg/mL) | MIC (Escherichia coli UB1005): 4 µM (≈ 7.32 µg/mL) | MIC [31]: ≥ 64 µM | MIC [14]: 4 µM (≈ 7.32 µg/mL) | MIC [32]: 8 µM (≈ 14.6 µg/mL) | MIC [33]: ≥ 64 µM | MIC [34]: 4 µM (≈ 7.32 µg/mL) | MIC [35]: 16 µM (≈ 29.3 µg/mL) | MIC [36]: ≥ 64 µM
